Data on one molecule can be found in PMC11842024, “Reversible male contraception by targeted inhibition of serine/threonine kinase 33” (Science (New York, N.Y.), 2024).

Data set [1] can be described thus: Metabolic stability assay in liver microsomes (MLM). As to conditions: for half-life at 2 µM: mouse, liver microsomes. The class given is in vitro ADME, mouse. As to the method: Metabolic stability assay in liver microsomes. The stabilities of CDD-2110, CDD-2211, CDD-2212, CDD-2807, and CDD-3348 in liver microsomes with/without Uridine Diphosphate Glucuronic Acid (UDP-GA, a cofactor of UDP-glucuronosyltransferases) were performed and half-life was calculated as previously reported (36). Briefly, each CDD compound (2.0 μM) was incubated in the mouse or human liver microsomes (0.5 mg protein/mL) at 37°C in 1× PBS fortified with NADPH (1.0 mM) and with/without UDP-GA (2.5 mM). Alamethicin (25 µg/mL) as a pore forming agent was used for the glucuronidation (Table S2A). The samples were collected at specific time-points 0, 30, and 60 min in duplicate. The reactions were terminated by adding equivalent volume of ice-cold methanol (CH3OH) and vortexed. After centrifugation at 15000 g for 10 min, 3.0 μL of the supernatant was analyzed by Thermo TSQ Quantis MS coupled with a Thermo Vanquish UHPLC (San Jose, CA) equipped with a Luna C18 column (1 mm × 50 mm, 1.6 µm, Phenomenex, Torrance, CA). The column temperature was maintained at 40°C. CDD-2807 was monitored under the selected reaction monitoring (SRM) mode coupled with a positive electrospray ionization (ESI) source. The SRM ion pairs were 447→321 for CDD-2807.
A general note: Liver microsomes are vesicles of endoplasmic reticulum, rich in cytochrome P450 enzymes.

Another data set deals with CLK2 (Homo sapiens, UniProt P49760). Briefly: NanoBRET target engagement intracellular kinase assay. It counts as cell-based. Also on record: host or cells: HEK293 (HEK293T cultured). As to the method: (§1) NanoBRET Target Engagement intracellular kinase assay. HEK293T cells were cultured in […]
(§2) The cell line underwent authentication by short tandem repeat (STR) profiling at Cytogenetics and Cell Authentication Core (CCAC) at MD Anderson Cancer Center. NanoBRET Target Engagement intracellular kinase assay, K-10 assay (Cat. # N2641), K-9 assay (Cat. # N2631), transfection reagent FuGENE HD (Cat. # E2311), transfection carrier DNA (Cat. # E4881), NanoLuc-STK33 fusion vector (Cat. # NV2111), NanoLuc-RET fusion vector (Cat. # NV1951), NanoLuc-CLK1 fusion vector (Cat. # NV1131), NanoLuc-CLK2 fusion vector (Cat. # NV1141), and NanoLuc-CLK4 fusion vector (Cat. # NV1151) were purchased from Promega. The measurement of test compound engagement with cellular target protein was performed in a 384-well format according to manufacturer’s instructions. HEK293 cells were transiently transfected with NanoLuc (STK33, RET, CLK1, CLK2, and CLK4) fusion vectors. After 36 hours of transfection, cells were treated with a fixed concentration of tracer (recommended by Promega) followed by compounds (inhibitors) for 2 hours of incubation. To determine the test compound […]
(§3) 0.4 nM at a fixed tracer concentration. Staurosporine was measured in parallel as a positive control.
(§4) Freshly prepared NanoBRET Nano-Glo substrate plus extracellular NanoLuc inhibitor was then added to initiate the subsequent bioluminescence resonance energy transfer (BRET) measurements using a CLARIOstar Plus BMG LABTECH plate reader. Data analysis was done by measuring the ratio of acceptor emission to donor emission (BRET ratio) and normalized by subtracting no-tracer-control-background. IC50 values were obtained by nonlinear regression using a four-parameter equation in GraphPad Prism 7 (San Diego, CA).
Background: BRET reads energy transfer from a luciferase to a nearby fluorophore.

A further data set concerns the target CLK1 (Homo sapiens, UniProt P49759). The data set is described as above. It counts as cell-based. Also on record: host or cells: HEK293 (HEK293T cultured). As to the method: as §1, §2, §3, §4
Another data set addresses CLK4 (Homo sapiens, UniProt Q9HAZ1). The data set is described as above. Details: host or cells: HEK293 (HEK293T cultured). The class given is cell-based. The protocol:
as §1, §2, §3, §4

The target of the next data set is RET (Homo sapiens, UniProt P07949). The data set is described as above. It counts as cell-based. Also on record: host or cells: HEK293 (HEK293T cultured). The protocol: as §1, §2, §3, §4
The next data set has as its target STK33 (Homo sapiens, UniProt Q9BYT3). The description is as above. Also on record: host or cells: HEK293 (HEK293T cultured). It counts as cell-based. As to the method: as §1, §2, §3, §4
Data set [2] can be described thus: Alanine transaminase (ALT) and aspartate transaminase (AST) assays in serum. It counts as in vivo, mice. As to the method: Alanine transaminase (ALT) and aspartate transaminase (AST) assays. On day 45 of protocol 1 and day 7 and day 63 of protocol 2, three mice from each protocol were euthanized, and blood was collected through cardiac puncture. The serum was isolated by centrifuging the whole blood samples at 1500 g for 10 min and then maintained on wet ice before analysis. ALT and AST levels were measured in duplicates using assay kits (StanBio, Boerne, TX) according to the manufacturer's instructions. ALT and AST levels were determined using the rate of NADH oxidation, which was quantified by measuring absorbance at 340 nm using a CLARIOstar plate reader (BMG Labtech in Cary, NC). ALT and AST were tested for significance at multiple collection time points, tests for significance included a test for normality (Shapiro-Wilk test) and following the test for normality were then analyzed using an unpaired t-test with significance determined by an alpha of P = 0.05. […]
any significant differences between groups.
Fertility analysis. Sexually mature male C57/129 hybrid mice were randomly assigned to either the vehicle control treatment or the CDD-2807 treatment groups. Drug formulation and injections were as follows: for protocol 1 mice receiving the 15 mg/kg CDD-2807 twice daily dosing had the compound dissolved in DMSO, which was injected at 5% of the final volume in 10% Captisol and water. For protocol 2 mice receiving a single daily dose of 50 mg/kg CDD-2807, the compound was dissolved in DMSO and injected at 5% in 20% Captisol and water. All injections were administered as i.p. injections, and for the 15 mg/kg CDD-2807 and DMSO control mice, the injections were delivered in the morning and the evening. Mice in the 50 mg/kg dosing received i.p. injections once in the evening. Weights were measured daily prior to drug administration and monitored throughout the entirety of the injection period. […]

Setting [3] is: HEK293 cells, 2 hours incubation.

Where two headings read alike, the source gives them in different places. A value given as a limit tells only on which side of the number the result lay.

RET, sequence (P07949 29-1114): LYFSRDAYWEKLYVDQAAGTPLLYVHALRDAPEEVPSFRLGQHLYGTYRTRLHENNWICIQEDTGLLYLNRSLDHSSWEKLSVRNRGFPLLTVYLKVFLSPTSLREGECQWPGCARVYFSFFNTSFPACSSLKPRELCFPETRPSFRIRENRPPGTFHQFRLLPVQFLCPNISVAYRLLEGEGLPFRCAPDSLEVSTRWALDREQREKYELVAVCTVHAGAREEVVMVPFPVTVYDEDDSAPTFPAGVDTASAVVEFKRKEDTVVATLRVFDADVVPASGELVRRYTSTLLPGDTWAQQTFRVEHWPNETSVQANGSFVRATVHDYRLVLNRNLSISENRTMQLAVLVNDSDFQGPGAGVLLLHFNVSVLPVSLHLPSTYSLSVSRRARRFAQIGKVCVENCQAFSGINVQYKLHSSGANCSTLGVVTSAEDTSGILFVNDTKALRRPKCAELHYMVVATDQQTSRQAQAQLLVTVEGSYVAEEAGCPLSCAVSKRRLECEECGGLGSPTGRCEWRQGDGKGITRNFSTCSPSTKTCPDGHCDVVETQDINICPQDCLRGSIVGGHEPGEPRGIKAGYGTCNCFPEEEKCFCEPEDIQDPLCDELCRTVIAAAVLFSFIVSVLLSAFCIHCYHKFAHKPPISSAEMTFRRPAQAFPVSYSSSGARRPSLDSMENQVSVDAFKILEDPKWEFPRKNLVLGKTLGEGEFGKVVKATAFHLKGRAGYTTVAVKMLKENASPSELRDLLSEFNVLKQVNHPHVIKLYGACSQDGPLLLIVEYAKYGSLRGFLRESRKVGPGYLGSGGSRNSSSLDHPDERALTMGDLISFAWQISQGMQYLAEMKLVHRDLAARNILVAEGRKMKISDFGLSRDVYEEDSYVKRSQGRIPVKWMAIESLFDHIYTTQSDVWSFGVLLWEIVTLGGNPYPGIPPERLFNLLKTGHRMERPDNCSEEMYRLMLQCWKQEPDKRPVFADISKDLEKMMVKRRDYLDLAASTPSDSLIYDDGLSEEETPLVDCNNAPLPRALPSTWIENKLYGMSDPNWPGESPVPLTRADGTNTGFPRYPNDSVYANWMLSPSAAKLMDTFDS
CLK1, sequence (P49759 whole entry): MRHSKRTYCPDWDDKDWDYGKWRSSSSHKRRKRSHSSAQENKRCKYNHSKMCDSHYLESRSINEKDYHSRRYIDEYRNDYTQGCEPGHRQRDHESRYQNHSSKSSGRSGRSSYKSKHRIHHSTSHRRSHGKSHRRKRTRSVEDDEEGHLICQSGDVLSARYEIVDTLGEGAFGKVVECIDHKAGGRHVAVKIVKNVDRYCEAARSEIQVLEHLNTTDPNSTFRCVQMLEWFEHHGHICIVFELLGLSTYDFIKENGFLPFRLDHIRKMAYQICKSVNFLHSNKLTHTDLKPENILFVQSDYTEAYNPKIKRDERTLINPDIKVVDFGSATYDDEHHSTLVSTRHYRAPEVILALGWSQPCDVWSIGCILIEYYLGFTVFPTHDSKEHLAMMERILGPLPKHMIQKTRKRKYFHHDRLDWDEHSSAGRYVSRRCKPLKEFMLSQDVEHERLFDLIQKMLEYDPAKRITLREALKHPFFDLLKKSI
CLK2, sequence (P49760 whole entry, the tested form may be a part): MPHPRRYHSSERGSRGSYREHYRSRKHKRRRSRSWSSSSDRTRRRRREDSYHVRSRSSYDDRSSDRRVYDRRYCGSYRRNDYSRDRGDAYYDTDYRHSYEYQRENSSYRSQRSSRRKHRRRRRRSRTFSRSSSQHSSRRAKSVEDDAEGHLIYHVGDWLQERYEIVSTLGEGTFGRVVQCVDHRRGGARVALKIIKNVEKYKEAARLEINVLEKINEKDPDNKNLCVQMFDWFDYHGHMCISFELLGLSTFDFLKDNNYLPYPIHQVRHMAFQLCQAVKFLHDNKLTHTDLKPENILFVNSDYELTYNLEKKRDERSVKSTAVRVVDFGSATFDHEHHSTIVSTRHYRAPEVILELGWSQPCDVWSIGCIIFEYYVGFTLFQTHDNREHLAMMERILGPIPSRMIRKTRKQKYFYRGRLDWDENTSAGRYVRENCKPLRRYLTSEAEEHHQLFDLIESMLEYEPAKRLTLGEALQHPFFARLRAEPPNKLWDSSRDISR
CLK4, sequence (Q9HAZ1 whole entry): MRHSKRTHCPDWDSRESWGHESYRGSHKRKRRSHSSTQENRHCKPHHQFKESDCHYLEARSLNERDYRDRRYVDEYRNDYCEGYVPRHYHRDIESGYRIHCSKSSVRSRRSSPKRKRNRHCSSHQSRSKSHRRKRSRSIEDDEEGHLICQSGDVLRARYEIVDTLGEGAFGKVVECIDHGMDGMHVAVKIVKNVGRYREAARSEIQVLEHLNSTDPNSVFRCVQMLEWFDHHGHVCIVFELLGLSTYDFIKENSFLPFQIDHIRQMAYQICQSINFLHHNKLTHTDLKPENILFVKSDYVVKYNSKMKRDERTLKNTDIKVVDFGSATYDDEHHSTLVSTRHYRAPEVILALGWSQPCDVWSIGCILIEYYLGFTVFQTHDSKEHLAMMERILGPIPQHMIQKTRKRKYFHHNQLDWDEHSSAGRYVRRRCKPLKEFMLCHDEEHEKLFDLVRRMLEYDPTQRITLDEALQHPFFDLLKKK
STK33, sequence (Q9BYT3 whole entry): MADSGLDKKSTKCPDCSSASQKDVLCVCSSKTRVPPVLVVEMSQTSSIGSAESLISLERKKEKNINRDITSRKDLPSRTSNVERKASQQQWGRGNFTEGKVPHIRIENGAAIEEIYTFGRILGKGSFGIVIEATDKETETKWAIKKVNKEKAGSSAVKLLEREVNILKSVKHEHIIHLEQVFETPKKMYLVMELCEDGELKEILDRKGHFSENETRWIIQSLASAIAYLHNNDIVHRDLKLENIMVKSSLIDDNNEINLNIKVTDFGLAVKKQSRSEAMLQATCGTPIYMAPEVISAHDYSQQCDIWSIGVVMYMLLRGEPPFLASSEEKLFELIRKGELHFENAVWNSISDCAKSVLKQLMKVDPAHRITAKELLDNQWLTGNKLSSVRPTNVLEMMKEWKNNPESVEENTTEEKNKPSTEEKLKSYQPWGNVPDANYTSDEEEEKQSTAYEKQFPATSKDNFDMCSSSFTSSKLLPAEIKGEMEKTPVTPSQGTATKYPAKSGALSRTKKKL

For the molecule `O=C(c1ccc2[nH]nc(C#Cc3ccccc3-c3ccccc3)c2c1)N1CC2(CCCNC2)C1` [CDD-2807], the “Metabolic stability MLM, t1/2” value in data set [1] (2.0 µM, 0.5 mg protein/mL, NADPH, data >60 min is an extrapolated estimate) is above 1 h. In addition, the “Metabolic stability in MLM” value in data set [1] (Phase I metabolism) is ~ 1 hour; in data set [1] (Phases I and II metabolism), ~ 50 minutes. The half-life at 2 µM in data set [1] (2.0 µM, 0.5 mg protein/mL, NADPH, data >60 min is an extrapolated estimate, read-out: Metabolic stability MLM, t1/2) is 1.18 h; in data set [1] (NADPH with UDP-GA (2.5 mM), alamethicin, read-out: MLM, t1/2, liver microsomes with glucuronidation), 0.833 h. Also, the IC50 on CLK2 (setting [3]) was determined as 101 nM; on CLK1 (setting [3]) it was 116 nM; at CLK4 (setting [3]), 85 nM; on RET (setting [3]), 363 nM; at STK33 (setting [3]) it was 9.2 nM. The “Fold NanoBRET IC50 CLK2 over STK33 (in parentheses)” value at CLK2 (selectivity vs STK33) was determined as 11 X. The “Fold NanoBRET IC50 CLK1 over STK33 (in parentheses)” value on CLK1 (selectivity vs STK33) was determined as 13 X. In addition, the “Fold NanoBRET IC50 CLK4 over STK33 (in parentheses)” value on CLK4 (selectivity vs STK33) stood at 9 X. Also, the “Fold NanoBRET IC50 RET over STK33 (in parentheses)” value on RET (selectivity vs STK33) was determined as 39 X. For the same molecule, at STK33, the “selectivity toward STK33 compared to CLK1, CLK2, CLK4, and RET” value is above 9 fold. Besides, the ALT in data set [2] (Protocol 1, 45 Days) was 20.33 ± 5.30 IU/L; in data set [2] (Protocol 2, 7 Days) it was 23.65 ± 2.50 IU/L; in data set [2] (Protocol 2, 63 Days), 45.97 ± 11.04 IU/L. The AST was 35.80 ± 3.09 IU/L in data set [2] (Protocol 1, 45 Days); 21.66 ± 3.30 IU/L in data set [2] (Protocol 2, 7 Days); 29.76 ± 6.79 IU/L in data set [2] (Protocol 2, 63 Days).

What is called IC50 is the concentration that gives 50% inhibition.
